Results reported in patent US6403594B1, “Benzopyran derivatives” (Recordati, S.A. Chemical and Pharmaceutical Company, priority 1999, dated 2002).

Experiments:
[1] = test system: diastolic blood pressure; experiment: Lowering of diastolic blood pressure in anaesthetised dogs after i.v. administration; assay type: in vivo, dog
Description: (§1) The experiments were performed according to the method of Imagawa J. et al., J. Pharmacol. Methods 22: 103-111, 1989, with substantial modifications, as follows: adult male beagle dogs, weighing 8-10 kg, were anaesthetised with pentobarbital sodium (30 mg/kg i.v. and 2 mg/kg/h i.v.), intubated and spontaneously ventilated with room air. In order to monitor systemic blood pressure (BP), a polyethylene (PE) catheter was introduced into the aortic arch through the left femoral artery. A collateral of the left femoral vein was cannulated for infusion of anaesthetic, and the right femoral vein was cannulated for administration of compounds. For intra-arterial (i.a.) injection of noradrenaline (NA), a PE catheter was introduced into the lower portion of the abdominal aorta via the right external iliac artery. Through such procedure, NA was selectively distributed to the lower urinary tract. A paramedian vertical suprapubic incision extending from the base of the pelvis to the mid-abdominal region was made and the bladder and prostate were exposed. The bladder was manually emptied with a syringe. Prostatic urethral pressure was monitored with a Mikro-tip catheter (5F) introduced into the bladder via the external urethral meatus, and withdrawn until the pressure transducer was positioned in the prostatic region of the urethra. A ligature was secured between the neck of the bladder and urethra to isolate the response of the latter and to avoid any interaction with the bladder. Another ligature was put around the Mikro-tip catheter at the external meatus, to secure the catheter itself. After a stabilising period following the surgical procedure (30 minutes), in which arterial and prostatic urethral pressure were continuously monitored as basal values, i.a. administration of NA was made at intervals of 20 minutes. The doses of NA chosen were such to produce an increase of at least 100% in urethral pressure. The test compounds were administered i.v. in a cumulative manner with intervals of 15-20 minutes between administrations. I.a. injections of NA were repeated 5 minutes after every dosing of test compound with intervals of about 10 minutes between stimulations. In order to compare the effects of the administered compound, dose/response curves (log dose transformation) were constructed by computing, at the peak effect, the percent decrease in diastolic blood pressure and the percent inhibition of the increase in urethral pressure induced by NA.

[2] = target: T1, α1b-adrenoceptor (recombinant) (Homo sapiens, UniProt P35368); experiment: Radioligand binding, cloned α1b-adrenoceptor ([3H]prazosin); conditions: read-out: Affinity for recombinant α1b-adrenoceptor, cloned receptors (Ki)
T1 construct: expressed in transfected cells
T1 sequence (P35368 1-520): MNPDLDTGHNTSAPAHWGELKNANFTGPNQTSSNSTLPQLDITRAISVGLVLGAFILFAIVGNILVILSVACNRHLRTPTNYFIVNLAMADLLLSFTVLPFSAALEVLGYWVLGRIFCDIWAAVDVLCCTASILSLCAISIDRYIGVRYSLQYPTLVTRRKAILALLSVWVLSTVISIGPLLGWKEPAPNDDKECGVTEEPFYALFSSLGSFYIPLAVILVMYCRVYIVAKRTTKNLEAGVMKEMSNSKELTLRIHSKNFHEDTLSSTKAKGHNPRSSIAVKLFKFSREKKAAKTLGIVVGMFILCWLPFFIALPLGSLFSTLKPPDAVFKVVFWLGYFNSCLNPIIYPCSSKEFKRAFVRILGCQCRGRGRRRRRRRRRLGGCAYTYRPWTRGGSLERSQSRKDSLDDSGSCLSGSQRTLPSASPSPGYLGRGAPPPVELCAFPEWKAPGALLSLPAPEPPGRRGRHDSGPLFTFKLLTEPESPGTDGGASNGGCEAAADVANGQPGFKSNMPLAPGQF

[3] = test system: prostatic urethral pressure increase induced by noradrenaline; experiment: Inhibition of urethral contractions induced by noradrenaline in anaesthetised dogs after i.v. administration; assay type: in vivo, dog; conditions: for UC ID50: active dose inhibiting by 50% the urethral contractions induced by noradrenaline: i.v. administration; for DBP/UC ratio between the active doses: i.v., DBP ED25 / UC ID50
Description: as §1

[4] = target: T2, α1d-adrenoceptor (recombinant) (Homo sapiens, UniProt P25100); experiment: Radioligand binding, cloned α1d-adrenoceptor ([3H]prazosin); conditions: read-out: Affinity for recombinant α1d-adrenoceptor, cloned receptors (Ki)
T2 sequence (P25100 1-572): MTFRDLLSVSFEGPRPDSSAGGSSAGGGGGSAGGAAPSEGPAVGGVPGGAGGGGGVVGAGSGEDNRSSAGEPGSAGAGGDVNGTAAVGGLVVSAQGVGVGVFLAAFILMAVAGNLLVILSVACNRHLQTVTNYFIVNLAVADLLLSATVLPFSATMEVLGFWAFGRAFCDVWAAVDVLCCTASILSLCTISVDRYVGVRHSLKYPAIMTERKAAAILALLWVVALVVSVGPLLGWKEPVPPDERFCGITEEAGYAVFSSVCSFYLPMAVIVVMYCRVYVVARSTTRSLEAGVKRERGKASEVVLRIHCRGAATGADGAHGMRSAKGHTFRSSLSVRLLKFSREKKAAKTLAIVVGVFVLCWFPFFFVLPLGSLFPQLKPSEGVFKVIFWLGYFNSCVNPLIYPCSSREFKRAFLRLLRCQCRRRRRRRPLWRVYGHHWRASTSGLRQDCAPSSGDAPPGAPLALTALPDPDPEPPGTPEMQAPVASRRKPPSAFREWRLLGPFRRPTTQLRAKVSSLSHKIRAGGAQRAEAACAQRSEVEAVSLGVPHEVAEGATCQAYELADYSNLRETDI

| Compound | DBP ED25: active dose lowering diastolic blood pressure by 25% [1] [mg/kg] | Ki [2] [nM] | UC ID50: active dose inhibiting by 50% the urethral contractions induced by noradrenaline [3] [mg/kg] | DBP/UC ratio between the active doses [3] | Ki [4] [nM] |
| --- | --- | --- | --- | --- | --- |
| CCOC(=O)c1oc2c(C(=O)NCCCN3CCN(c4cc(Cl)ccc4OC)CC3)cccc2c(=O)c1C [Example 4, 2-Ethoxycarbonyl-8-{3-[4-(5-chloro-2-methoxyphenyl)-1-piperazinyl]-propylcarbamoyl}-3-methyl-4-oxo-4H-1-benzopyran] | 0.1633 | 0.08 | 0.0023 | 71.0 | 2.75 |
| COc1ccc(Cl)cc1N1CCN(CCCNC(=O)c2cccc3c(=O)c(C)c(C(N)=O)oc23)CC1 [Example 1, 2-Carbamoyl-8-{3-[4-(5-chloro-2-methoxyphenyl)-1-piperazinyl]-propylcarbamoyl}-3-methyl-4-oxo-4H-1-benzopyran] | 2.769 | 2.62 | 0.0118 | 234.7 | 57.4 |
